Assay results as given in PubChem BioAssay (NCI).
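Where inhibition never reached the appropriate level, the endpoint shown equals the highest concentration tested. Otherwise, values were interpolated linearly from a five-concentration, 48-hour dose response in 96-well plates. Abbreviation: GI50, concentration required for 50% inhibition of growth. TGI: concentration producing complete growth inhibition.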 *1 amine or outer side, *2 acyl side, *3 side chain or, on linkers, in order; H or OH if unused. Where a SMILES comes first, the peptide text is derived from it. [ ]: non-standard residue; d: D form. ξ: configuration not given here. X21 = CC[C@@H](C)C(N[*:1])C(=O)[*:2]; ξR = N=C(N)NCCCC(N)C(=O)O; ξI = CCC(C)C(N)C(=O)O; ξL = CC(C)CC(N)C(=O)O; ξK = NCCCCC(N)C(=O)O; ξV = CC(C)C(N)C(=O)O; ξA = CC(N)C(=O)O

Columns and labels:
Test in all cases: NCI tumour cell line growth inhibition, 48 h
OVCAR-4 ovarian = test system: OVCAR-4 ovarian
NCI-H460 lung = test system: NCI-H460 lung
KM12 colon = test system: KM12 colon
HOP-62 NSCLC = test system: HOP-62 NSCLC
786-0 renal = test system: 786-0 renal
LOX IMVI melanoma = test system: LOX IMVI melanoma
SF-539 CNS = test system: SF-539 CNS
SR leukemia = test system: SR leukemia
MDA-MB-231 breast = test system: MDA-MB-231 breast
RPMI-8226 leukemia = test system: RPMI-8226 leukemia

| Compound | GI50 (OVCAR-4 ovarian) [µM] | TGI (OVCAR-4 ovarian) [µM] | GI50 (NCI-H460 lung) [µM] | TGI (NCI-H460 lung) [µM] | GI50 (KM12 colon) [µM] | TGI (KM12 colon) [µM] | GI50 (HOP-62 NSCLC) [µM] | TGI (HOP-62 NSCLC) [µM] | GI50 (786-0 renal) [µM] | TGI (786-0 renal) [µM] | GI50 (LOX IMVI melanoma) [µM] | TGI (LOX IMVI melanoma) [µM] | GI50 (SF-539 CNS) [µM] | TGI (SF-539 CNS) [µM] | GI50 (SR leukemia) [µM] | TGI (SR leukemia) [µM] | GI50 (MDA-MB-231 breast) [µM] | TGI (MDA-MB-231 breast) [µM] | GI50 (RPMI-8226 leukemia) [µM] | TGI (RPMI-8226 leukemia) [µM] |
| --- | --- | --- | --- | --- | --- | --- | --- | --- | --- | --- | --- | --- | --- | --- | --- | --- | --- | --- | --- | --- |
| COc1ccc(-c2csc(NC(=O)c3cc(O)c(O)c(O)c3)n2)cc1 | 7.27 | > 33.3 | 7.5 | > 33.3 | 13.2 | > 33.3 | 8.92 | > 33.3 | 11 | > 33.3 | 6.57 | > 33.3 | 7.64 | > 33.3 | 1.89 | > 33.3 | 5.18 | > 33.3 | 5.59 | > 33.3 |
| OCc1ccc(N(CCN2CCCC2)Cc2ccc(F)cc2)cc1Cl | 11.1 | > 100 | 3.47 | 13.9 | 17.4 | 34.9 | 17.9 | 42.1 | 21 | 66 | 15.6 | 31.5 | 16.4 | 31.2 | 16.1 | 44.8 | 16 | 38.1 | 18.5 | 47.4 |
| C=C1C(=O)OC2CC(C)C3C=CC(=O)C3CC12 (centres undefined) | – | 9.68 | – | 9.5 | – | 18.9 | – | 31.8 | – | 3.66 | – | 2.69 | – | 4.92 | – | 4.53 | – | 3.74 | – | 7.03 |
| C=C1C(=O)O[C@H]2[C@H]1CC/C(Cn1cc(-c3cc(C)c(C)cc3C)nn1)=C\CC[C@@]1(C)O[C@@H]21 | 0.701 | 2.12 | 3.16 | 10.8 | 2.31 | 6.62 | 1.77 | 3.97 | 1.5 | 3.18 | 0.725 | 2.1 | 1.16 | 2.43 | 1.26 | 7.8 | 1.11 | 2.62 | 1.18 | 4.11 |
| NC(=O)c1ccc2nc3c(n2c1)C(=O)C(=O)c1ccccc1-3 | 0.481 | 1.71 | 1.53 | 3.34 | 1.39 | 2.97 | 1.39 | 2.8 | 1.63 | 2.99 | 0.264 | 0.787 | 0.621 | 1.85 | 0.488 | 3.86 | 0.85 | 2.32 | 2.2 | 5.52 |
| COc1ccc(OC)c2c(=S)c3ccccc3[nH]c12 | – | > 100 | – | > 85 | – | > 100 | – | > 100 | – | > 100 | – | > 100 | – | > 100 | – | > 100 | – | > 100 | – | > 100 |
| CCC(C)C1NC(=O)C(CC(C)C)NC(=O)C(C)NC(=O)C(C(C)C)NC(=O)C(CCCCN)NC(=O)C(CC(C)C)NC(=O)C(C(C)C)NC(=O)[C@H](C)NC(=O)C(C(C)CC)NC(=O)C(CCCN=C(N)N)NC(=O)C(CCCCN)NC(=O)C(CCCN=C(N)N)NC(=O)C(CCCCN)NC(=O)C([C@H](C)CC)NC(=O)C(CCCCN)NC1=O (some centres undefined) (cyclo(A[ξV][ξL][ξK][ξV][ξA][ξL][ξI][ξK][X21][ξK][ξR][ξK][ξR][ξI])) | 0.72 | 10.2 | 1.57 | 3.49 | 1.73 | 3.9 | 1.7 | 4.18 | 1.62 | 3.17 | 1.62 | 3.03 | 1.84 | 3.61 | 1.48 | 4.1 | 1.62 | 3.73 | 0.305 | 1.13 |
| CC(C)Nc1ncc2cc(Oc3ccc(F)cc3F)c(=O)n(C)c2n1 | > 25 | > 25 | > 25 | > 25 | > 25 | > 25 | > 25 | > 25 | > 25 | > 25 | > 25 | > 25 | > 25 | > 25 | > 25 | > 25 | 21 | > 25 | > 25 | > 25 |
| CCOC(=O)Nc1nc2c(C)cccc2s1 | 43.2 | > 100 | 70.8 | > 100 | 56.8 | > 100 | > 100 | > 100 | > 100 | > 100 | 49.7 | > 100 | 77.7 | > 100 | 73.3 | > 100 | 36.1 | > 100 | 31.4 | > 100 |
| CN(C)CCCn1c2nc(=O)[nH]c(=O)c-2nc2cc(Cl)c(Cl)cc21 | 6.3 | 18.8 | 14.5 | > 100 | 8.2 | 26 | 4.14 | 15.9 | 8.79 | 23.2 | 2.37 | 7.36 | 3.24 | 12.2 | 6.61 | 30.5 | 3.88 | 14.9 | 3.25 | 12.9 |
| Cc1[nH]nc2c1N=C(c1ccccc1Cl)c1cc([N+](=O)[O-])ccc1N2 | 5.15 | > 25 | 0.484 | > 25 | 0.338 | > 13.7 | 1.02 | > 25 | 1.35 | > 17.1 | 1.92 | > 25 | 0.132 | > 5.27 | 0.11 | > 25 | 4.42 | > 25 | 0.97 | > 25 |
| CCNCCCn1c2c(c3ccc([N+](=O)[O-])cc3c1=O)C(=O)c1cc(OC)cnc1-2 | 0.176 | 1.49 | 0.0321 | 0.376 | 0.197 | 0.505 | 0.107 | 1.89 | 0.0406 | 0.31 | 0.0265 | 0.131 | 0.0696 | 0.579 | – | 1.27 | 0.326 | 1.49 | 0.0813 | 0.976 |
| C=C1C(=O)O[C@H]2[C@H]1CC/C(COC(=O)c1ccccc1)=C\CC[C@@]1(C)O[C@@H]21 | 2.64 | 9.87 | 2.22 | 6.16 | 2.57 | 8.42 | 2.96 | 14.1 | 1.46 | 3.08 | 1.32 | 2.74 | 0.662 | 2.1 | 0.35 | 86.8 | 1.69 | 4.36 | 0.375 | 2.44 |
| CN1CCN(c2ccc(C(=O)Nc3cc(-c4cccc(NS(=O)(=O)c5ccccc5)c4)[nH]n3)cc2)CC1 | 6.42 | 28.7 | 5.46 | 23.1 | 0.0293 | 13.8 | 6.61 | 30.2 | 4.8 | 24.2 | 3.05 | 13.2 | 1.79 | 9.57 | 2 | 5.33 | 3.53 | 12.2 | 3.33 | 14.5 |
| NC1=Nc2cc(OCCCN3Cc4ccccc4C3)c(OCC3CC3)cc2C12CCCC2 | 3.55 | 16.6 | 2.02 | 4.67 | 4.04 | 15.5 | 3.45 | 11.5 | 1.69 | 3.77 | 1.51 | 2.91 | 1.7 | 3.17 | 1.94 | 5.02 | 1.62 | 3.65 | 1.75 | 4.51 |
| Cc1c(N=Cc2ccc(N(CCC#N)CCC#N)cc2)c(=O)n(-c2ccccc2)n1C | – | > 100 | – | > 100 | – | > 100 | – | 86.1 | – | 90.3 | – | > 100 | – | 86.5 | – | > 100 | – | > 100 | – | > 100 |
| Cn1c(=O)c(Oc2ccccc2)cc2cnc(NC3CCOCC3)nc21 | > 25 | > 25 | > 25 | > 25 | > 25 | > 25 | > 25 | > 25 | > 25 | > 25 | > 25 | > 25 | > 25 | > 25 | > 25 | > 25 | > 25 | > 25 | > 25 | > 25 |
| Cc1ccc(Sc2sc(-c3ccccc3)nc2[P+](c2ccccc2)(c2ccccc2)c2ccccc2)cc1 | 0.305 | 1.09 | 0.314 | 1.09 | 0.314 | 1.09 | 0.296 | 1.18 | 0.381 | 1.45 | 0.276 | 0.901 | 0.375 | 1.47 | 0.368 | 3.77 | 0.251 | 0.943 | 0.178 | 0.523 |
| Cc1cc(N(CCCl)CCCl)ccc1/C=N/NC(=O)Cc1cc(=O)oc2cc(O)ccc12 | – | > 100 | – | 30.5 | – | 36.6 | – | 39.7 | – | 59.7 | – | 26.7 | – | 40.7 | – | > 100 | – | 86.8 | – | 57.5 |
| COc1ccc2c(c1)C1(C(=O)N2)C(C#N)=C(c2ccccc2)Nc2c1c(-c1ccccc1)nn2-c1ccccc1 (centres undefined) | 1.77 | 3.5 | 1.98 | 3.75 | 2.66 | 7.26 | 2.28 | 7.07 | 2.03 | 4.94 | 1.81 | 3.51 | 1.75 | 3.65 | 3.08 | 8.65 | 2.33 | 5.81 | 4.07 | 17.8 |
| COc1ccc2c(c1)/C(=C/c1cc(OC)c(OC)c(OC)c1)C(=O)N2C | 4.66 | > 77.5 | 2.46 | 7.02 | 1.76 | 4.95 | 4.63 | 97.6 | 3.82 | 23.7 | 2.32 | 11.8 | 2.21 | 5.92 | 0.634 | 3.28 | 2.81 | > 27.1 | 1.59 | 4.43 |
| COc1ccc2c(c1)/C(=N/OC(C)=O)c1c-2c(=O)[nH]c2ccccc12 | 4.88 | 21.3 | 59 | > 100 | 3.84 | 19.6 | 18 | 34.4 | 15.9 | 43.6 | 14.8 | 29.4 | 16.9 | 46.4 | 6.63 | 33.1 | 13 | 27.3 | 5.12 | 21.8 |
| NC1CCC(N[C@@H]2C[C@H]2c2ccccc2)CC1 (some centres undefined) | > 100 | > 100 | > 100 | > 100 | > 100 | > 100 | 95.4 | > 100 | > 100 | > 100 | 69.6 | > 100 | 15.3 | 52 | 19.9 | > 100 | 23 | > 100 | 41.8 | > 100 |
| N#C/C(=C\c1ccc(Br)cc1)n1nnc2ccccc21 | 1.5 | 5.25 | 1.68 | 3.82 | 0.512 | 2.33 | 1.92 | 10.5 | 0.501 | 1.79 | 0.319 | 1.19 | 0.513 | 1.86 | 0.144 | 14.6 | 1.33 | 6.17 | 0.475 | 3.31 |
| COc1cc(/C=C2\C(=O)Nc3cccc(Cl)c32)cc(OC)c1OC | > 100 | > 100 | > 100 | > 100 | > 100 | > 100 | 32.6 | > 100 | 41.8 | > 100 | > 100 | > 100 | > 100 | > 100 | 1.55 | 25.1 | 33.3 | > 100 | 53.7 | > 100 |
